# Assay: Tested for 50% of inhibition of Osteoclastic acid phosphatase (OAP) activity, determined using dose-response curve
row,SMILES,IC50 [µM]
1,"O=C(c1ccccc1)C(C(=O)c1ccccc1)(c1cccc2ccccc12)P(=O)(O)O [2-(naphthalen-1-yl)-1,3-dioxo-1,3-diphenylpropan-2-ylphosphonic acid]",1.4
2,O=P(O)(O)C(Cc1ccccc1)c1cccc2ccccc12 (configuration not stated) [(1-Naphthalen-1-yl-2-phenyl-ethyl)-phosphonic acid],21
3,O=P(O)(O)C(Cc1ccc(-c2ccccc2)cc1)c1cccc2ccccc12 (configuration not stated) [(2-Biphenyl-4-yl-1-naphthalen-1-yl-ethyl)-phosphonic acid],6.3
4,O=P(O)(O)C(CC1CCCCC1)c1cccc2ccccc12 (configuration not stated) [(2-Cyclohexyl-1-naphthalen-1-yl-ethyl)-phosphonic acid],11.4
5,O=P(O)(O)C(Cc1ccc(Cl)cc1)c1cccc2ccccc12 (configuration not stated) [[2-(4-Chloro-phenyl)-1-naphthalen-1-yl-ethyl]-phosphonic acid],21
6,Cc1ccc2ccccc2c1C(CC1CCCCC1)P(=O)(O)O (configuration not stated) [[2-Cyclohexyl-1-(2-methyl-naphthalen-1-yl)-ethyl]-phosphonic acid],11
7,O=P(O)(O)Cc1cccc2ccccc12 [naphthalen-1-ylmethylphosphonic acid],30

# — BindingDB's records for doi:10.1016/0960-894X(95)00299-9 (1995)
